Results from paper PMC12300041, “Tricyclic Isatin Derivatives as Anti-Inflammatory Compounds with High Kinase Binding Affinity” (Molecules, 2025).

Columns and labels:
Assay in all cases: KINOMEscan
Assay type in all cases: binding
ADCK3 = target: T1, ADCK3 (Homo sapiens, UniProt Q8NI60)
T1 construct: purchased Eurofins DiscoverX KINOMEscan
Procedure, shortened: (§1)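 Kd values rest on a 12-point half-log titration, highest concentration 33 μM, with 1 h room-temperature binding and qPCR read-out of affinity-captured free kinase.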

ANKK1 = target: T2, ANKK1 (Homo sapiens, UniProt Q8NFD2)
T2 construct: purchased Eurofins DiscoverX KINOMEscan
Procedure, shortened: as §1

BMPR1B = target: T3, BMPR1B (Homo sapiens, UniProt O00238)
T3 construct: purchased Eurofins DiscoverX KINOMEscan
Procedure, shortened: (§2)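 Binding reactions proceed for 1 h at room temperature. Kinase not bound by compound is captured on immobilized affinity ligand and quantified by qPCR; Kd is fitted over 12 half-log concentrations, top 33 μM.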

BUB1 = target: T4, BUB1 (Homo sapiens, UniProt O43683)
T4 construct: purchased Eurofins DiscoverX KINOMEscan
Procedure, shortened: as §1

CDK11 = target: T5, CDK11 (Homo sapiens, UniProt Q9BWU1)
T5 construct: purchased Eurofins DiscoverX KINOMEscan
Procedure, shortened: as §2

CDK4 = target: T6, CDK4 (Homo sapiens, UniProt P11802)
T6 construct: purchased Eurofins DiscoverX KINOMEscan
Procedure, shortened: as §1

CDKL3 = target: T7, CDKL3 (Homo sapiens, UniProt Q8IVW4)
T7 construct: purchased Eurofins DiscoverX KINOMEscan
Procedure, shortened: as §2

CLK1 = target: T8, CLK1 (Homo sapiens, UniProt P49759)
T8 construct: purchased Eurofins DiscoverX KINOMEscan
Procedure, shortened: as §1

CTK = target: T9, CTK (Homo sapiens, UniProt P42679)
T9 construct: purchased Eurofins DiscoverX KINOMEscan
Procedure, shortened: as §2

DCAMKL1 = target: T10, DCAMKL1 (Homo sapiens, UniProt O15075)
T10 construct: purchased Eurofins DiscoverX KINOMEscan
Procedure, shortened: as §2

EGFR (L858R, T790M) = target: T11, EGFR (L858R, T790M) (Homo sapiens, UniProt P00533, L858R/T790M)
T11 construct: purchased Eurofins DiscoverX KINOMEscan
Procedure, shortened: as §1

EPHB1 = target: T12, EPHB1 (Homo sapiens, UniProt P54762)
T12 construct: purchased Eurofins DiscoverX KINOMEscan
Procedure, shortened: as §1

ERK1 = target: T13, ERK1 (Homo sapiens, UniProt P27361)
T13 construct: purchased Eurofins DiscoverX KINOMEscan
Procedure, shortened: as §2

ERK3 = target: T14, ERK3 (Homo sapiens, UniProt Q16659)
T14 construct: purchased Eurofins DiscoverX KINOMEscan
Procedure, shortened: as §2

ERK5 = target: T15, ERK5 (Homo sapiens, UniProt Q13164)
T15 construct: purchased Eurofins DiscoverX KINOMEscan
Procedure, shortened: as §2

ERN1 = target: T16, ERN1 (Homo sapiens, UniProt O75460)
T16 construct: purchased Eurofins DiscoverX KINOMEscan
Procedure, shortened: as §2

FLT3 (N841I) = target: T17, FLT3 (N841I) (Homo sapiens, UniProt P36888, N841I)
T17 construct: purchased Eurofins DiscoverX KINOMEscan
Procedure, shortened: as §2

FLT4 = target: T18, FLT4 (Homo sapiens, UniProt P35916)
T18 construct: purchased Eurofins DiscoverX KINOMEscan
Procedure, shortened: as §2

GRK1 = target: T19, GRK1 (Homo sapiens, UniProt Q15835)
T19 construct: purchased Eurofins DiscoverX KINOMEscan
Procedure, shortened: as §2

JAK2 (JH1domain-cat.) = target: T20, JAK2 (JH1domain-cat.) (Homo sapiens, UniProt O60674)
T20 construct: JAK2 (JH1domain-cat.); purchased Eurofins DiscoverX KINOMEscan
Procedure, shortened: as §1

KIT (D816V) = target: T21, KIT (D816V) (Homo sapiens, UniProt P10721, D816V)
T21 construct: purchased Eurofins DiscoverX KINOMEscan
Procedure, shortened: as §2

KIT (V559D, T670I) = target: T22, KIT (V559D, T670I) (Homo sapiens, UniProt P10721, T670I/V559D)
T22 construct: purchased Eurofins DiscoverX KINOMEscan
Procedure, shortened: as §2

LRRK2 (G2019S) = target: T23, LRRK2 (G2019S) (Homo sapiens, UniProt Q5S007, G2019S)
T23 construct: purchased Eurofins DiscoverX KINOMEscan
Procedure, shortened: as §2

MAP3K3 = target: T24, MAP3K3 (Homo sapiens, UniProt Q99759)
T24 construct: purchased Eurofins DiscoverX KINOMEscan
Procedure, shortened: as §2

MKNK2 = target: T25, MKNK2 (Homo sapiens, UniProt Q9HBH9)
T25 construct: purchased Eurofins DiscoverX KINOMEscan
Procedure, shortened: as §1

MST3 = target: T26, MST3 (Homo sapiens, UniProt Q9Y6E0)
T26 construct: purchased Eurofins DiscoverX KINOMEscan
Procedure, shortened: as §2

MTOR = target: T27, MTOR (Homo sapiens, UniProt P42345)
T27 construct: purchased Eurofins DiscoverX KINOMEscan
Procedure, shortened: as §1

MUSK = target: T28, MUSK (Homo sapiens, UniProt O15146)
T28 construct: purchased Eurofins DiscoverX KINOMEscan
Procedure, shortened: as §2

NEK6 = target: T29, NEK6 (Homo sapiens, UniProt Q9HC98)
T29 construct: purchased Eurofins DiscoverX KINOMEscan
Procedure, shortened: as §2

PIK3C2G = target: T30, PIK3C2G (Homo sapiens, UniProt O75747)
T30 construct: purchased Eurofins DiscoverX KINOMEscan
Procedure, shortened: as §2

PIK3CB = target: T31, PIK3CB (Homo sapiens, UniProt P42338)
T31 construct: purchased Eurofins DiscoverX KINOMEscan
Procedure, shortened: as §1

PRKCH = target: T32, PRKCH (Homo sapiens, UniProt P24723)
T32 construct: purchased Eurofins DiscoverX KINOMEscan
Procedure, shortened: as §1

SGK3 = target: T33, SGK3 (Homo sapiens, UniProt Q96BR1)
T33 construct: purchased Eurofins DiscoverX KINOMEscan
Procedure, shortened: as §1

TGFBR2 = target: T34, TGFBR2 (Homo sapiens, UniProt P37173)
T34 construct: purchased Eurofins DiscoverX KINOMEscan
Procedure, shortened: as §1

TIE2 = target: T35, TIE2 (Homo sapiens, UniProt Q02763)
T35 construct: purchased Eurofins DiscoverX KINOMEscan
Procedure, shortened: as §2

TLK2 = target: T36, TLK2 (Homo sapiens, UniProt Q86UE8)
T36 construct: purchased Eurofins DiscoverX KINOMEscan
Procedure, shortened: as §1

TYK2 (JH1 domain-cat.) = target: T37, TYK2 (JH1 domain-cat.) (Homo sapiens, UniProt P29597)
T37 construct: TYK2 (JH1 domain-cat.); purchased Eurofins DiscoverX KINOMEscan
Procedure, shortened: as §2

WEE2 = target: T38, WEE2 (Homo sapiens, UniProt P0C1S8)
T38 construct: purchased Eurofins DiscoverX KINOMEscan
Procedure, shortened: as §2

YANK3 = target: T39, YANK3 (Homo sapiens, UniProt Q86UX6)
T39 construct: purchased Eurofins DiscoverX KINOMEscan
Procedure, shortened: as §2

T3 sequence (O00238 14-502): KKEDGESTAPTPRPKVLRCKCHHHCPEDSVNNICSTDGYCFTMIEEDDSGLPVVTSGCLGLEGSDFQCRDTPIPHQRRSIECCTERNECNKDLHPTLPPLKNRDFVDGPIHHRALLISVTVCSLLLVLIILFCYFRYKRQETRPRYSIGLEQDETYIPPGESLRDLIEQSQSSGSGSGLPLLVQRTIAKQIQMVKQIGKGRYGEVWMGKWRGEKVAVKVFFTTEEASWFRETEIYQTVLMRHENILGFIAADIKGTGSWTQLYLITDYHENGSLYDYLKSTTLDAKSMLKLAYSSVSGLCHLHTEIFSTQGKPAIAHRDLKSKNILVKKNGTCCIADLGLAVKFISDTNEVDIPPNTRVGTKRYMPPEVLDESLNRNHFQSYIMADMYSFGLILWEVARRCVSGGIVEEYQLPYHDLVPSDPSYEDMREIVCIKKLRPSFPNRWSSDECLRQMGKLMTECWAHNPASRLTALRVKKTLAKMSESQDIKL
T1 sequence (Q8NI60 163-647): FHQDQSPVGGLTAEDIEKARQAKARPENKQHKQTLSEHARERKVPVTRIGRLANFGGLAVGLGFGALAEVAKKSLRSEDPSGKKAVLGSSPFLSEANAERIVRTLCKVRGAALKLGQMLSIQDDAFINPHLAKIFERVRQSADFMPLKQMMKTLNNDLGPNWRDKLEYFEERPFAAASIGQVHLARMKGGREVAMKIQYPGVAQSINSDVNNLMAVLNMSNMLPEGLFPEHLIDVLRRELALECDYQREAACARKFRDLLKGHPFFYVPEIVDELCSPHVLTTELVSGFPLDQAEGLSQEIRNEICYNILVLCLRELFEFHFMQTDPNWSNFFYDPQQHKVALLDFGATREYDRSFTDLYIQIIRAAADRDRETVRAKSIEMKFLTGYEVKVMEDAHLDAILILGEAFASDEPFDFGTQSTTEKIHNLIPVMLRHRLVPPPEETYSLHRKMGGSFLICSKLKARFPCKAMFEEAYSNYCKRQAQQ
T7 sequence (Q8IVW4 whole entry): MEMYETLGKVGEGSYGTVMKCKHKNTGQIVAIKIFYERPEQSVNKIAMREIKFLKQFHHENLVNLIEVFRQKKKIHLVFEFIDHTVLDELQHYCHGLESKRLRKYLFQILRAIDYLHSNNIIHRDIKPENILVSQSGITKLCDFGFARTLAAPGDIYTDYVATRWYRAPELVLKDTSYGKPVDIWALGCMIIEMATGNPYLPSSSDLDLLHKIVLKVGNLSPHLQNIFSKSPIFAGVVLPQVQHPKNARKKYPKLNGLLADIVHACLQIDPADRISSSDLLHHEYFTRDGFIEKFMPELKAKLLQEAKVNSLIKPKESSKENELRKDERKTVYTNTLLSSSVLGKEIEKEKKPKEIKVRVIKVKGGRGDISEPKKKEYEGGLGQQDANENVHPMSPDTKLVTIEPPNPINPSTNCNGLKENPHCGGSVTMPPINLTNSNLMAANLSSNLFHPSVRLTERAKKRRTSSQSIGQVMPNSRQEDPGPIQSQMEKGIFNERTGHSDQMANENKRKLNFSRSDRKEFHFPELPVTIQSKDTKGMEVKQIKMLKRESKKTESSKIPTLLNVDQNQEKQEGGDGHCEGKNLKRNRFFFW
T16 sequence (O75460 19-977): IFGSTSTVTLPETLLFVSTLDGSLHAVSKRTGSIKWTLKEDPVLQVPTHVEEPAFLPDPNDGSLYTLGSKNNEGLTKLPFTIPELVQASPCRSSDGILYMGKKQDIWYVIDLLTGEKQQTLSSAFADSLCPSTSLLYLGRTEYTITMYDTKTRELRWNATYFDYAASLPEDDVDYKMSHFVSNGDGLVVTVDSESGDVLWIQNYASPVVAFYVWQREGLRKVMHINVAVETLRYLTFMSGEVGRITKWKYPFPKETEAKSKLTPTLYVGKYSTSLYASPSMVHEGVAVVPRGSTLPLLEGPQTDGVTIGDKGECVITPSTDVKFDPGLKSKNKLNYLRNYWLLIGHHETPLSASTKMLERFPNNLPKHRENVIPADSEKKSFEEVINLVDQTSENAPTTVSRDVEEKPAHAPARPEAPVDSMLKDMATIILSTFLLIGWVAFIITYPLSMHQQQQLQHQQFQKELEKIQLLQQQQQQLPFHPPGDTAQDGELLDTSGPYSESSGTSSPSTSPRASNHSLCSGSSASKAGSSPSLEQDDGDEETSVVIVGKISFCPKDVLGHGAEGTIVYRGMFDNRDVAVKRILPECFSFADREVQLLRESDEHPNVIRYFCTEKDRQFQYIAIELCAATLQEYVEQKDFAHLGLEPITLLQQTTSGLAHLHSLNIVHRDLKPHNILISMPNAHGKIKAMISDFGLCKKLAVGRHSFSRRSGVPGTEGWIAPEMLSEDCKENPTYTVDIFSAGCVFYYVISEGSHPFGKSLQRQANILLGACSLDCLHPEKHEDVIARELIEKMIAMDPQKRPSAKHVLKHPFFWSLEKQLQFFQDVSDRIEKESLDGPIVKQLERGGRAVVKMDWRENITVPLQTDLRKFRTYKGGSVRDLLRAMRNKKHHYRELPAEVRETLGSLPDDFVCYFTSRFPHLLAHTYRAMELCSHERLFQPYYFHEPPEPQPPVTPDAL
T31 sequence (P42338 whole entry): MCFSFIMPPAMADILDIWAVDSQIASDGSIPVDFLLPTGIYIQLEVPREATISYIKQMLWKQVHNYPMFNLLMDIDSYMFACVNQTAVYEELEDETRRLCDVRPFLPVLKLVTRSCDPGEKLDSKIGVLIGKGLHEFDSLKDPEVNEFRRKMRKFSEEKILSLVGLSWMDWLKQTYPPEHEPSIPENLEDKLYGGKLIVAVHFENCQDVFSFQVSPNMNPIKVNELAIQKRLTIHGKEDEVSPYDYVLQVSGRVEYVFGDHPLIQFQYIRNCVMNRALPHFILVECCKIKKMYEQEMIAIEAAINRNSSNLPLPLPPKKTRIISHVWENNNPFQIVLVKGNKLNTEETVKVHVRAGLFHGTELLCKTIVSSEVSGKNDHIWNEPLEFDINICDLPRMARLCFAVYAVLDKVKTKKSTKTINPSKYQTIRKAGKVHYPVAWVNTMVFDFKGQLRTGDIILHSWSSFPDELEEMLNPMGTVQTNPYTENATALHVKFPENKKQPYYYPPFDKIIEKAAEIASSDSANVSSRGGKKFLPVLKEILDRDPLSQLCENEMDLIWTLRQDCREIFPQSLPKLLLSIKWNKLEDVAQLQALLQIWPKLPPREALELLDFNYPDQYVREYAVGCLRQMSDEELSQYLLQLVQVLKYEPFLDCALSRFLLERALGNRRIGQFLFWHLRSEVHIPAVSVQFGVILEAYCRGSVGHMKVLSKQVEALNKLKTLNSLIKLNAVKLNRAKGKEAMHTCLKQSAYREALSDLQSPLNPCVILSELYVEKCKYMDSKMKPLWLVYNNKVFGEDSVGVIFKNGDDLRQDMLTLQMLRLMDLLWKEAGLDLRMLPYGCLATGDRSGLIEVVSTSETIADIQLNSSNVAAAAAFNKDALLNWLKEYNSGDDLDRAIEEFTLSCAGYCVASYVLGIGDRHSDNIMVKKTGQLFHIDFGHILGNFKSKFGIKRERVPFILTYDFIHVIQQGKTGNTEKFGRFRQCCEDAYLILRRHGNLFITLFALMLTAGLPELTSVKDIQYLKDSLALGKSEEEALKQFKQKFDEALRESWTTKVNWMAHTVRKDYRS
T9 sequence (P42679 whole entry): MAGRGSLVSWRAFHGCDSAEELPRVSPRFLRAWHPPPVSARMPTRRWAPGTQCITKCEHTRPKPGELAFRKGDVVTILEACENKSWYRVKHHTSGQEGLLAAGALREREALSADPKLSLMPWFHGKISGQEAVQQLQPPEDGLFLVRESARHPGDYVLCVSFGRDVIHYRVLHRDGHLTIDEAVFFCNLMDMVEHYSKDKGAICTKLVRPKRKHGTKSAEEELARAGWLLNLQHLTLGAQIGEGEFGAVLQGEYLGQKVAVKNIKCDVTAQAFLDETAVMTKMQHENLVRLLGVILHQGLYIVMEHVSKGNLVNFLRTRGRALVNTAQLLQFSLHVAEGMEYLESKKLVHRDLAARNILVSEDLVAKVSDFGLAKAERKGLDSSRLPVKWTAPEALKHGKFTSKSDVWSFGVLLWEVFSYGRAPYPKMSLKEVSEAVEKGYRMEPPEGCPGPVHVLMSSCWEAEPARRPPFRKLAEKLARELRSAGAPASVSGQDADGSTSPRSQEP
T22 sequence (P10721 26-976 V559D/T670I): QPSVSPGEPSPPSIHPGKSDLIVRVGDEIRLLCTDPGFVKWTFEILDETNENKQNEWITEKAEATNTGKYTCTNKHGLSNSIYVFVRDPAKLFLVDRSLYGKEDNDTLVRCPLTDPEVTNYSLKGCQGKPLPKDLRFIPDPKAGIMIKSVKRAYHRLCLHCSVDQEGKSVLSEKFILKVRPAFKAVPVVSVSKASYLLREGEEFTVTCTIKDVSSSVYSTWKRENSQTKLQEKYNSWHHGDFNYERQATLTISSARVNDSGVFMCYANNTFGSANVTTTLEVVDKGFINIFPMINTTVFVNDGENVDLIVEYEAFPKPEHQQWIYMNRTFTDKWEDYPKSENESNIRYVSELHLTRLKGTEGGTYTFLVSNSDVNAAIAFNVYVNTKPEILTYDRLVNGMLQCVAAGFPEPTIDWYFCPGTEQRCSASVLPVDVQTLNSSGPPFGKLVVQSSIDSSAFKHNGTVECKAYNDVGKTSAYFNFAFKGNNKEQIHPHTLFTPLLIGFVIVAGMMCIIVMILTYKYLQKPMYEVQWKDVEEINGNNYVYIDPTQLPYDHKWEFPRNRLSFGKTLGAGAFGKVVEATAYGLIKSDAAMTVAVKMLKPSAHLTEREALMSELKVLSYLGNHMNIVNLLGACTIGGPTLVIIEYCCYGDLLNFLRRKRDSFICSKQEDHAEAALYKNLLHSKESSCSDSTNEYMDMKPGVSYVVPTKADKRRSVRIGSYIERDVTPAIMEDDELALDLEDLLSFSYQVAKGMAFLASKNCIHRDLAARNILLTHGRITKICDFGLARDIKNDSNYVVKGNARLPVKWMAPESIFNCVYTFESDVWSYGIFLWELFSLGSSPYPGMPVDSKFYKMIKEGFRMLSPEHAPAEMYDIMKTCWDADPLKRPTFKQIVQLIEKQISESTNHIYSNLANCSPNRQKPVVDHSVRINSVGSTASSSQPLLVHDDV

## O=C1Nc2c(cc([N+](=O)[O-])c3c2CCCC3)C1=NO [Compound 5d, 3-(Hydroxyimino)-5-nitro-1,3,6,7,8,9-hexahydro-2H-benzo[g]indol-2-one]
ADCK3
  inhibition at 10 µM: 12%
ANKK1
  inhibition at 10 µM: 8%
BMPR1B
  inhibition at 10 µM: 19%
BUB1
  inhibition at 10 µM: 95.6%
CDK11
  inhibition at 10 µM: 1%
CDK4
  inhibition at 10 µM: 7%
CDKL3
  inhibition at 10 µM: 7%
CLK1
  inhibition at 10 µM: 85%
CTK
  inhibition at 10 µM: 0%
DCAMKL1
  inhibition at 10 µM: 29%
EGFR (L858R, T790M)
  inhibition at 10 µM: 2%
EPHB1
  inhibition at 10 µM: 0%
ERK1
  inhibition at 10 µM: 0%
ERK3
  inhibition at 10 µM: 0%
ERK5
  inhibition at 10 µM: 0%
ERN1
  inhibition at 10 µM: 29%
FLT3 (N841I)
  inhibition at 10 µM: 0%
FLT4
  inhibition at 10 µM: 8%
GRK1
  inhibition at 10 µM: 67%
JAK2 (JH1domain-cat.)
  inhibition at 10 µM: 42%
KIT (D816V)
  inhibition at 10 µM: 22%
KIT (V559D, T670I)
  inhibition at 10 µM: 55%
LRRK2 (G2019S)
  inhibition at 10 µM: 89%
MAP3K3
  inhibition at 10 µM: 68%
MKNK2
  inhibition at 10 µM: 93.2%
MST3
  inhibition at 10 µM: 62%
MTOR
  inhibition at 10 µM: 56%
MUSK
  inhibition at 10 µM: 0%
NEK6
  inhibition at 10 µM: 17%
PIK3C2G
  inhibition at 10 µM: 43%
PIK3CB
  inhibition at 10 µM: 0%
PRKCH
  inhibition at 10 µM: 0%
SGK3
  inhibition at 10 µM: 55%
TGFBR2
  inhibition at 10 µM: 24%
TIE2
  inhibition at 10 µM: 21%
TLK2
  inhibition at 10 µM: 0%
TYK2 (JH1 domain-cat.)
  inhibition at 10 µM: 90%
WEE2
  inhibition at 10 µM: 0%
YANK3
  inhibition at 10 µM: 0%
